# Molecular target: T1, rhinovirus 3C protease from HRV serotype-14 (Human rhinovirus 14, UniProt P03303)
# T1 construct: Recombinant rhinovirus 3C proteases; made in house
# Assay: Inhibition of rhinovirus 3C protease activity (FRET assay), HRV-14
# Format: biochemical
# Conditions: HRV-14 3C protease, progress curves, enzyme start; for kinact/KI: read-out: Protease Inhibition kobs/I
# Procedure: Stock solutions (50 mM, in DMSO) of various compounds were prepared; dilutions were in the same solvent. Recombinant rhinovirus 3C proteases (see Birch et al., “Purification of recombinant human rhinovirus 14 3C protease expressed in Escherichia coli,” Protein Expr. Pur. 1995, 6(5), 609–618) from serotypes 14, 16, and 2 were prepared by the following standard chromatographic procedures: (1) ion exchange using Q Sepharose Fast Flow from Pharmacia; (2) affinity chromatography using Affi-Gel Blue from Biorad; and (3) sizing using Sephadex G-100 from Pharmacia. Each assay sample contained 2% DMSO, 50 mM tris pH 7.6, 1 mM EDTA, a test compound at the indicated concentration, approximately 1 μM substrate, and 50–100 nM protease. The kobs/I values were obtained from reactions initiated by addition of enzyme rather than substrate. RVP activity was measured in the fluorescence resonance energy transfer assay. The substrate was (N-terminal) DABCYL-(Gly-Arg-Ala-Val-Phe-Gln-Gly-Pro-Val-Gly)-EDANS. In the uncleaved peptide, the EDANS fluorescence was quenched by the proximal DABCYL group. When the peptide was cleaved, the quenching was relieved, and activity was measured as an increase in fluorescence signal. In the Table, unless otherwise indicated, all data are for rhinovirus 3C protease from HRV serotype-14 (produced from the infectious cDNA clone constructed by Dr. Robert Rueckert, Institute for Molecular Virology, University of Wisconsin, Madison, Wis.). The data in the column designated kobs/[I] were measured from progress curves in enzyme start experiments.
# T1 sequence (P03303 1538-1719): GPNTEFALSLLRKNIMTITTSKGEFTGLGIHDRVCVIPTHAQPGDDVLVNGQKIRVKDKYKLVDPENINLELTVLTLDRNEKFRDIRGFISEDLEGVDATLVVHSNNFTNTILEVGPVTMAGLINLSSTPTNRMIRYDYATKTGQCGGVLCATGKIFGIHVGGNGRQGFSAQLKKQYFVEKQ
Structure (SMILES),kinact/KI [M⁻¹ s⁻¹],Protease Inhibition kobs/I [M⁻¹ s⁻¹]
"CCOC(=O)/C=C/[C@H](C[C@@H]1CCNC1=O)NC(=O)Nc1ccccc1Oc1ccccc1 [Compound 55, 5-(2-oxo-pyrrolidin-3S-yl)-4S-[3-(2-phenoxy-phenyl)-ureido]-pent-2-enoic acid ethyl ester]",200,–
"CCOC(=O)/C=C/[C@H](C[C@@H]1CCNC1=O)NC(=O)C1CSC(c2ccccc2)N1C(C)=O (stereo partly drawn) [Compound 13, 4S-[(3-acetyl-2-phenyl-thiazolidine-4-carbonyl)-amino]-5-(2-oxo-pyrrolidin-3S-yl)-pent-2-enoic acid ethyl ester]",169,–
"CCOC(=O)/C=C/[C@H](C[C@@H]1CCNC1=O)NC(=O)/C=C/C(=O)Nc1c(C)cc(C)cc1C [Compound 50, 5-(2-Oxo-pyrrolidin-3S-yl)-4S-[3-(2,4,6-trimethylphenylcarbamoyl)-acryloylamino]-pent-2-enoic acid ethyl ester]",225,–
"CCOC(=O)/C=C/[C@H](C[C@@H]1CCNC1=O)NC(=O)c1ccc2cc(OC)c(OC)cc2c1 [Compound 18, 4S-[(6,7-dimethoxy-naphthalene-2-carbonyl)-amino]-5-(2-oxo-pyrrolidin-3S-yl)-pent-2-enoic acid ethyl ester]",262,–
"CCOC(=O)/C=C/[C@H](C[C@@H]1CCNC1=O)NC(=O)c1ccc2cc(O)ccc2c1 [Compound 65, 4S-[(6-hydroxy-naphthalene-2-carbonyl)-amino]-5-(2-oxo-pyrrolidin-3S-yl)-pent-2-enoic acid ethyl ester]",570,–
"CCOC(=O)/C=C/[C@H](C[C@@H]1CCNC1=O)NC(=O)c1cc2cc(OC)c(OCc3ccccc3)cc2[nH]1 [Compound 46, 4S-[(6-Benzyloxy-5-methoxy-1H-indole-2-carbonyl)-amino]-5-(2-oxo-pyrrolidin-3S-yl)-pent-2-enoic acid ethyl ester]",1830,–
"CCOC(=O)/C=C/[C@H](C[C@@H]1CCNC1=O)NC(=O)c1cc2ccccc2cc1NC(C)=O [Compound 22, 4S-[(3-acetylamino-naphthalene-2-carbonyl)-amino]-5-(2-oxo-pyrrolidin-3S-yl)-pent-2-enoic acid ethyl ester]",581,673
"CCOC(=O)/C=C/[C@H](C[C@@H]1CCNC1=O)NC(=O)c1cc2cccc([N+](=O)[O-])c2[nH]1 [Compound 42, 4S-[(7-Nitro-1H-indole-2-carbonyl)-amino]-5-(2-oxo-pyrrolidin-3S-yl)-pent-2-enoic acid ethyl ester]",272,–
"CCOC(=O)/C=C/[C@H](C[C@H]1CCNC1=O)NC(=O)c1ccc2ccccc2c1 [Compound 2, 4S-[(naphthalene-2-carbonyl)-amino]-5-(2-oxo-pyrrolidin-3-R-yl)-pent-2-enoic acid ethyl ester]",400,–
"CCOC(=O)/C=C/[C@H](C[C@@H]1CCNC1=O)NC(=O)c1nc2ccccc2nc1O [Compound 7, 4S-[(3-hydroxyquinoxaline-2-carbonyl)-amino]-5-(2-oxopyrrolidin-3S-yl)-pent-2-enoic acid ethyl ester]",36,–
"CCOC(=O)/C=C/[C@H](C[C@@H]1CCNC1=O)NC(=O)c1ccc(C(=O)OC)cc1 [Compound 4, N-[3-ethoxycarbonyl-1S-(2-oxo-pyrrolidin-3R-ylmethyl)-ally]-terephthalamic acid methyl ester]",258,–
"CCOC(=O)/C=C/[C@H](C[C@@H]1CCNC1=O)NC(=O)COc1cccc(OC)c1 [Compound 60, 4S-[2-(3-methoxy-phenoxy)-acetylamino]-5-(2-oxo-pyrrolidin-3S-yl)-pent-2-enoic acid ethyl ester]",77,–
"CCOC(=O)/C=C/[C@H](C[C@@H]1CCNC1=O)NC(=O)c1nc2ccccc2[nH]1 [Compound 10, 4-[(1H-benzoimidazole-2-carbonyl)-amino]-5-(2-oxo-pyrrolidin-3S-yl)-pent-2-enoic acid ethyl ester]",55,–
"CCOC(=O)/C=C/[C@H](C[C@@H]1CCNC1=O)NC(=O)c1cc2cc(F)ccc2[nH]1 [Compound 39, 4S-[(5-Fluoro-1H-indole-2-carbonyl)-amino]-5-(2-oxo-pyrrolidin-3S-yl)-pent-2-enoic acid ethyl ester]",615,–
"CCOC(=O)/C=C/[C@H](C[C@@H]1CCNC1=O)NC(=O)COc1cccc(Cl)c1 [Compound 61, 4S-[2-(3-chloro-phenoxy)-acetylamino]-5-(2-oxo-pyrrolidin-35-yl)-pent-2-enoic acid ethyl ester]",103,–
"CCOC(=O)/C=C/[C@H](C[C@@H]1CCNC1=O)NC(=O)c1cc2cc(Cl)ccc2[nH]1 [Compound 40, 4S-[(5-Chloro-1H-indole-2-carbonyl)-amino]-5-(2-oxo-pyrrolidin-3S-yl)-pent-2-enoic acid ethyl ester]",1270,–
"CCOC(=O)/C=C/[C@H](C[C@@H]1CCNC1=O)NC(=O)c1cc2ccccc2cc1N [Compound 69, 4S-[(3-amino-naphthalene-2-carbonyl)-amino]-5-(2-oxo-pyrrolidin-3S-yl)-pent-2-enoic acid ethyl ester]",142,–

# Now from value to molecule:
kinact/KI [M⁻¹ s⁻¹],Protease Inhibition kobs/I [M⁻¹ s⁻¹],Structure (SMILES)
173,–,"CCOC(=O)/C=C/[C@H](C[C@@H]1CCNC1=O)NC(=O)/C=C/c1ccc(OC)c(OC)c1 [Compound 5, 4S-[3-(3,4-dimethoxy-phenyl)-acryloylamino]-5-(2-oxo-pyrrolidin-3S-yl)-pent-2-enoic acid ethyl ester]"
7,–,"CCOC(=O)/C=C/[C@H](C[C@@H]1CCNC1=O)NC(=O)Cc1cccc(Cl)c1 [Compound 63, 4S-[2-(3-chloro-phenyl)-acetylamino]-5-(2-oxo-pyrrolidin-3S-yl)-pent-2-enoic acid ethyl ester]"
6850,–,"CCOC(=O)/C=C/[C@H](C[C@@H]1CCNC1=O)NC(=O)/C=C/c1cc(Br)ccc1Br [Compound 64, 4S-[3-(2,5-dibromo-phenyl)-acryloylamino]-5-(2-oxo-pyrrolidin-3S-yl)-pent-2-enoic acid ethyl ester]"
315,–,"CCOC(=O)/C=C/[C@H](C[C@@H]1CCNC1=O)NC(=O)/C=C/c1cccc(O)c1 [Compound 17, 4S-[3-(3-hydroxy-phenyl)-acryloylamino]-5-(2-oxo-pyrrolidin-3S-yl)-pent-2-enoic acid ethyl ester]"
219,–,"CCOC(=O)/C=C/[C@H](C[C@@H]1CCNC1=O)NC(=O)c1cc2cc(Br)ccc2o1 [Compound 14, 4S-[(5-bromo-benzofuran-2-carbonyl)-amino]-5-(2-oxo-pyrrolidin-3S-yl)-pent-2-enoic acid ethyl ester]"
664,–,"CCOC(=O)/C=C/[C@H](C[C@@H]1CCNC1=O)NC(=O)/C=C/c1ccc(OC)cc1 [Compound 16, 4S-[3-(methoxy-phenyl)-acryloylamino]-5-(2-oxo-pyrrolidin-3S-yl)-pent-2-enoic acid ethyl ester]"
750,–,"CCOC(=O)/C=C/[C@H](C[C@@H]1CCNC1=O)NC(=O)/C=C/c1ccc(Cl)cc1 [Compound 11, 4S-[3-(4-chloro-phenyl)-acryloylamino]-5-(2-oxo-pyrrolidin-3S-yl)-pent-2-enoic acid ethyl ester]"
79,–,"CCOC(=O)/C=C/[C@H](C[C@@H]1CCNC1=O)NC(=O)c1cncc(Br)c1 [Compound 6, 4S-[(5-bromo-pyridine-3-carbonyl)-amino]-5-(2-oxo-pyrrolidin-3S-yl)-pent-2-enoic acid ethyl ester]"
185,–,"CCOC(=O)/C=C/[C@H](C[C@@H]1CCNC1=O)NC(=O)Nc1cc(C)cc(C)c1 [Compound 58, 4S-[3-(3,5-dimethyl-phenyl)-ureido]-5-(2-oxo-pyrrolidin-3S-yl)-pent-2-enoic acid ethyl ester]"
283,–,"CCOC(=O)/C=C/[C@H](C[C@@H]1CCNC1=O)NC(=O)c1cc2ccccc2[nH]1 [Compound 47, 4S-[(1H-Indole-2-carbonyl)-amino]-5-(2-oxo-pyrrolidin-3S-yl)-pent-2-enoic acid ethyl ester]"

# Source: US6989384B2, “Antipicornaviral compounds and compositions, their pharmaceutical uses, and materials for their synthesis” (Agouron Pharmaceuticals, Inc., priority 2000, dated 2006)
